Publication PMC10455339, “Combining the Peptide RWQWRWQWR and an Ethanolic Extract of Bidens pilosa Enhances the Activity against Sensitive and Resistant Candida albicans and C. auris Strains” (Journal of Fungi, 2023)
Ends that are not written are not given here.

Columns and labels:
C. albicans SC5314 = test: microbe, parasite or virus in culture; format: cell-based, Candida albicans; conditions: SC5314, 48 h
Protocol: For the determination of the MICs, the guidelines of the Clinical Laboratory Standards Institute (CLSI BMD-M27-A4) were used with some modifications. Serial dilutions were made, for peptides from 6.25 to 200 µg/mL and for extracts from 31.2 to 2000 µg/mL, with RPMI 1640 medium in a 96-well microdilution plate (100 µL), and then 100 µL of the adjusted inoculum (0.5–2.5 × 10^3 cells/mL) was added and incubated at 37 °C, and visual and spectrophotometric reading (595 nm) was performed at 48 h. Controls: growth control in RPMI or DMSO, control with a known antifungal: FLC, C. albicans SC5314 (1 µg/mL), C. albicans 256 (64 µg/mL), C. auris 435 (8 µg/mL), and C. auris 537 (128 µg/mL), sterility controls correspond to RPMI medium and SS. The MIC was defined as the minimum concentration of peptide or extract that inhibited 50% of growth compared to the control. To determine the minimal fungicidal concentration (MFC), from the concentrations where no growth was observed, including the controls, a subculture was made on SDA and incubated for 24 h at 37 °C. The MFC was defined as the minimum concentration of peptide or extract that eliminated 100% of the growth compared to the control (n = 3).

[1] = system: primary culture of human foreskin fibroblasts; format: cell-based; conditions: 2 h
Protocol: The toxicity of the ethanolic extract of B. pilosa, the palindromic peptide, and their combinations was evaluated in a primary culture of human foreskin fibroblasts by the MTT (tetrazolium salt, Sigma-Aldrich) assay, with modifications. Briefly, cells were seeded in 96-well plates at a density of 1 × 10^4 cells and 100 μL per well and allowed to adhere and proliferate for 24 h RPMI medium at 37 °C and 5% CO2.
Following this, the complete medium was replaced with incomplete medium (without 10% fetal bovine serum) for an additional 24 h in order to achieve synchronization. The cells were then incubated at 37 °C and 5% CO2 for 2 h with 100 μL of B. pilosa extract (31.25–2000 µg/mL), peptide at the concentrations evaluated (3.12–200 μg/mL), and additive or synergistic combinations (C 1: 25/250 µg/mL, C 2: 50/62.5 µg/mL, C 3: 100/125 µg/mL, and C 4: 25/31.25 µg/mL). The culture medium was removed, and 100 μL of incomplete medium with 10% MTT was added and incubated at 37 °C and 5% CO2 for 4 h. […] Following a 30 min incubation at 37 °C, the absorbance at 575 nm was measured, using the BioTek ELx800 absorbance reader (Agilent, Santa Clara, USA). […] In addition, the half-maximal inhibitory concentration (IC50) was calculated by plotting viability versus log (concentration).

human red blood cells = test: Hemolytic activity assay; format: cell-based; conditions: positive control, Tween-20 (20% v/v) in PBS
Protocol: The hemolytic activity of the ethanolic extract of B. pilosa, palindromic peptide, and their combinations was analyzed on human red blood cells. Briefly, 5 mL of peripheral blood from a healthy individual was collected in an EDTA tube and centrifuged at 2500 rpm for 7 min. The erythrocyte-rich fraction was suspended in PBS and washed twice by centrifugation. Then, 100 µL of the B. pilosa extracts (15.62–2000 µg/mL), palindromic peptide (1.56–200 µg/mL), or additive or synergistic combinations of peptide and plant extract (combination 1: 25/250 µg/mL, combination 2: 50/62.5 µg/mL, combination 3: 100/125 µg/mL, and combination 4: 25/31.25 µg/mL) was mixed with 100 µL of erythrocytes (2% hematocrit) in round-bottom 96-well plates and incubated at 37 °C for 2 h. Subsequently, the reaction was stopped by centrifuging for 10 min at 2500 rpm. To measure hemoglobin levels, 100 µL of the supernatant containing the hemoglobin released from lysed erythrocytes was transferred to a 96-well plate with a flat bottom, and the absorbance was measured at 450 nm. PBS was used as a negative control, while Tween-20 (20% v/v) in PBS was used as a positive control (n = 3).

Row | MIC (C. albicans SC5314) [µM] | Substance | IC50 [1] [µg/mL] | Hemolysis (in words) (human red blood cells)
1 | 67 | RWQWRWQWR-NH2 [Peptide R-1-R] | 175.9 | 
2 |  | Tween-20 |  | completely lysed the red blood cells
